Laboratory results published in patent US5543415A, “Antidepressants” (Kyowa Hakko Kogyo Co., Ltd., priority 1992, dated 1996).

The compounds below were run on ddY-strain male mice (assay: Acute Toxicity Test (minimum lethal dose, oral)). Conditions: seven days after administration.
Assay type: in vivo
Method: Test compounds were orally administered to groups of ddY-strain male mice weighing 20±1 g, each group consisting of three mice. Seven days after the administration, minimum lethal dose (MLD) of each compound was determined by observing the mortality.

SMILES | MLD (minimum lethal dose)
CCn1c(=O)c2c(nc(C(F)=Cc3ccccc3)n2C)n(CC)c1=O (stereo in doubt) [Compound 138, (E)-1,3-Diethyl-8-(α-fluorostyryl)-7-methylxanthine] | > 100 mg/kg
CCn1c(=O)c2c(nc(/C=C/c3ccc4c(c3)OCCO4)n2C)n(CC)c1=O [Compound 90, (E)-8-[2-(1,4-Benzodioxan-6-yl)vinyl]-1,3-diethyl-7-methylxanthine] | > 300 mg/kg
CCOC(=O)COc1ccc(/C=C/c2nc3c(c(=O)n(CC)c(=O)n3CC)n2C)cc1 [Compound 189, (E)-8-(4-Ethoxycarbonylmethoxystyryl)-1,3-diethyl-7-methylxanthine] | > 100 mg/kg
CCCn1c(=O)c2[nH]c(/C=C/c3ccccc3F)nc2n(CCC)c1=O [Compound 43, (E)-8-(2-Fluorostyryl)-1,3-dipropylxanthine] | > 100 mg/kg
CCCn1c(=O)c2[nH]c(/C=C/c3ccc(OC)c(OC)c3)nc2n(CCC)c1=S [Compound 71, (E)-8-(3,4-Dimethoxystyryl)-1,3-dipropyl-2-thioxanthine] | > 100 mg/kg
CCn1c(=O)c2c(nc(/C=C/c3ccc4c(c3)OCO4)n2C)n(CC)c1=O [Compound 88, (E)-1,3-Diethyl-7-methyl-8-(3,4-methylenedioxystyryl)xanthine] | > 300 mg/kg
CCn1c(=O)c2c(nc(/C=C/c3ccc(OC)c(OC)c3Cl)n2C)n(CC)c1=O [Compound 106, (E)-8-(2-Chloro-3,4-dimethoxystyryl)-1,3-diethyl-7-methylxanthine] | > 300 mg/kg
CCCn1c(=O)c2c(nc(/C=C/c3ccccc3Cl)n2C)n(CCC)c1=O [Compound 42, (E)-8-(2-Chlorostyryl)-7-methyl-1,3-dipropylxanthine] | > 100 mg/kg
CCn1c(=O)c2[nH]c(/C=C/c3ccc(OC)c(C)c3)nc2n(CC)c1=O [Compound 174, (E)-1,3-Diethyl-8-(4-methoxy-3-methylstyryl)xanthine] | > 100 mg/kg
CCn1c(=O)c2c(nc(/C=C/c3cccc(F)c3)n2C)n(CC)c1=O [Compound 128, (E)-1,3-Diethyl-8-(3-fluorostyryl)-7-methylxanthine] | > 300 mg/kg
CCn1c(=O)c2[nH]c(/C=C/c3ccc4c(c3)OCO4)nc2n(CC)c1=O [Compound 87, (E)-1,3-Diethyl-8-(3,4-methylenedioxystyryl)xanthine] | > 300 mg/kg
CCCn1c(=O)c2[nH]c(/C=C/c3ccc4c(c3)OCCO4)nc2n(CCC)c1=O [Compound 17, (E)-8-[2-(1,4-Benzodioxan-6-yl)vinyl]-1,3-dipropylxanthine] | > 300 mg/kg
CCCn1c(=O)c2[nH]c(/C=C/c3cc(C)c(OC)cc3C)nc2n(CCC)c1=O [Compound 45, (E)-8-(4-Methoxy-2,5-dimethylstyryl)-1,3-dipropylxanthine] | > 300 mg/kg
CCn1c(=O)c2c(nc(/C=C/c3cc(C)c(OC)cc3C)n2C)n(CC)c1=O [Compound 84, (E)-1,3-Diethyl-8-(4-methoxy-2,5-dimethylstyryl)-7-methylxanthine] | > 300 mg/kg
CCn1c(=O)c2[nH]c(/C=C/c3ccccc3F)nc2n(CC)c1=O [Compound 167, (E)-1,3-Diethyl-8-(2-fluorostyryl)xanthine] | > 100 mg/kg
CCn1c(=O)c2[nH]c(/C=C/c3ccc(F)c(Cl)c3)nc2n(CC)c1=O [Compound 176, (E)-8-(3-Chloro-4-fluorostyryl)-1,3-diethylxanthine] | > 100 mg/kg
CCCn1c(=O)c2[nH]c(/C=C/c3cc(Br)c(OC)c(OC)c3)nc2n(CCC)c1=O [Compound 60, (E)-8-(3-Bromo-4,5-dimethoxystyryl)-1,3-dipropylxanthine] | > 300 mg/kg
Cn1c(=O)c2c(nc(/C=C/c3ccc4c(c3)OCO4)n2C)n(C)c1=O [Compound 96, (E)-8-(3,4-Methylenedioxystyryl)caffeine] | > 300 mg/kg
CCn1c(=O)c2c(nc(/C=C/c3cc(C(F)(F)F)cc(C(F)(F)F)c3)n2C)n(CC)c1=O [Compound 154, (E)-8-[3,5-Bis (trifluoromethyl)styryl]-1,3-diethyl-7-methylxanthine] | > 100 mg/kg
CCCn1c(=O)c2[nH]c(/C=C/c3ccc(OC)c(Br)c3)nc2n(CCC)c1=O [Compound 56, (E)-8-(3-Bromo-4-methoxystyryl)-1,3-dipropylxanthine] | > 100 mg/kg
CCCn1c(=O)c2[nH]c(/C=C/c3cc(OC)c(OCc4ccccc4)c(OC)c3)nc2n(CCC)c1=O [Compound 27, (E)-8-(4-Benzyloxy-3,5-dimethoxystyryl)-1,3-dipropylxanthine] | > 100 mg/kg
CCCCOc1ccc(/C=C/c2nc3c([nH]2)c(=O)n(CCC)c(=O)n3CCC)cc1 [Compound 52, (E)-8-(4-Butoxystyryl)-1,3-dipropylxanthine] | > 100 mg/kg
CCn1c(=O)c2[nH]c(/C=C/c3cccc(Br)c3)nc2n(CC)c1=O [Compound 161, (E)-8-(3-Bromostyryl)-1,3-diethylxanthine] | > 100 mg/kg

SMILES | MLD (minimum lethal dose)
COc1ccc(/C=C/c2nc3c(c(=O)n(C)c(=O)n3C)n2C)c(OC)c1OC [Compound 92, (E)-8-(2,3,4-Trimethoxystyryl)caffeine] | > 300 mg/kg
CCCn1c(=O)c2c(nc(/C=C/c3ccc(OC)c4ccccc34)n2C)n(CCC)c1=O [Compound 63, (E)-8-[2-(4-Methoxynaphthyl)vinyl]-7-methyl-1,3-dipropylxanthine] | > 300 mg/kg
CCn1c(=O)c2[nH]c(/C=C/c3cc(OC)cc(OC)c3)nc2n(CC)c1=O [Compound 129, (E)-8-(3,5-Dimethoxystyryl)-1,3-diethylxanthine] | > 100 mg/kg
CCn1c(=O)c2[nH]c(/C=C/c3cccc(F)c3)nc2n(CC)c1=O [Compound 127, (E)-1,3-Diethyl-8-(3-fluorostyryl)xanthine] | > 100 mg/kg
CCCn1c(=O)c2c(nc(/C=C/c3ccc(OC)cc3OC)n2C)n(CCC)c1=O [Compound 26, (E)-8-(2,4-Dimethoxystyryl)-7-methyl-1,3-dipropylxanthine] | > 300 mg/kg
CCn1c(=O)c2c(nc(/C=C/c3cccc(Cl)c3)n2C)n(CC)c1=O [Compound 132, (E)-8-(3-Chlorostyryl)-1,3-diethyl-7-methylxanthine] | > 300 mg/kg
CCn1c(=O)c2[nH]c(/C(C)=C/c3ccccc3)nc2n(CC)c1=O [Compound 133, (E)-1,3-Diethyl-8-(α-methylstyryl)xanthine] | > 100 mg/kg
CCn1c(=O)c2[nH]c(/C=C/c3cc(C)ccc3C)nc2n(CC)c1=O [Compound 109, (E)-8-(2,5-Dimethylstyryl)-1,3-diethylxanthine] | > 300 mg/kg
CCn1c(=O)c2c(nc(/C=C/c3ccccc3OC)n2C)n(CC)c1=O [Compound 158, (E)-1,3-Diethyl-8-(2-methoxystyryl)-7-methylxanthine] | > 100 mg/kg
CCn1c(=O)c2[nH]c(/C=C/c3cccc(OC)c3[N+](=O)[O-])nc2n(CC)c1=O [Compound 121, (E)-1,3-Diethyl-8-(3-methoxy-2-nitrostyryl)xanthine] | > 300 mg/kg
CCn1c(=O)c2c(nc(/C=C/c3cccc([N+](=O)[O-])c3)n2C)n(CC)c1=O [Compound 160, (E)-1,3-Diethyl-7-methyl-8-(3-nitrostyryl)xanthine] | > 100 mg/kg
CCn1c(=O)c2c(nc(/C=C/c3cccc(C(F)(F)F)c3)n2C)n(CC)c1=O [Compound 164, (E)-1,3-Diethyl-7-methyl-8-(3-trifluoromethylstyryl)xanthine] | > 100 mg/kg
CCCn1c(=O)c2c(nc(/C=C/c3ccc4c(c3)OCO4)n2C)n(CCC)c1=O [Compound 20, (E)-7-Methyl-8-(3,4-methylenedioxystyryl)-1,3-dipropylxanthine] | > 300 mg/kg
CCCn1c(=O)c2c(nc(/C=C\c3ccc(OC)c(OC)c3)n2C)n(CCC)c1=O [Compound 47, (Z)-8-(3,4-Dimethoxystyryl)-7-methyl-1,3-dipropylxanthine] | > 300 mg/kg
CCn1c(=O)c2[nH]c(/C=C/c3ccc(Br)cc3)nc2n(CC)c1=O [Compound 141, (E)-8-(4-Bromostyryl)-1,3-diethylxanthine] | > 100 mg/kg
CCCn1c(=O)c2c(nc(/C=C/c3ccc(OC)c(C)c3OC)n2C)n(CCC)c1=O [Compound 16, (E)-8-(2,4-Dimethoxy-3-methylstyryl)-7-methyl-1,3-dipropylxanthine] | > 300 mg/kg
CCn1c(=O)c2[nH]c(/C=C/c3cc(F)cc(F)c3)nc2n(CC)c1=O [Compound 155, (E)-8-(3,5-Difluorostyryl)-1,3-diethylxanthine] | > 100 mg/kg
CCn1c(=O)c2[nH]c(/C=C/c3cccc([N+](=O)[O-])c3)nc2n(CC)c1=O [Compound 159, (E)-1,3-Diethyl-8-(3-nitrostyryl)xanthine] | > 100 mg/kg
CCn1c(=O)c2c(nc(/C(C)=C/c3ccccc3)n2C)n(CC)c1=O [Compound 134, (E)-1,3-Diethyl-7-methyl-8-(α-methylstyryl)xanthine] | > 300 mg/kg
CCCn1c(=O)c2[nH]c(/C=C/c3cccc([N+](=O)[O-])c3)nc2n(CCC)c1=O [Compound 35, (E)-8-(3-Nitrostyryl)-1,3-dipropylxanthine] | > 100 mg/kg
CCCn1c(=O)c2c(nc(/C=C/c3ccc(OC)c(Br)c3)n2C)n(CCC)c1=O [Compound 57, (E)-8-(3-Bromo-4-methoxystyryl)-7-methyl-1,3-dipropylxanthine] | > 100 mg/kg
C#CCn1c(/C=C/c2ccc(OC)c(OC)c2)nc2c1c(=O)n(CCC)c(=O)n2CCC [Compound 67, (E)-8-(3,4-Dimethoxystyryl)-7-propargyl-1,3-dipropylxanthine] | > 300 mg/kg
